Laboratory results taken from patent US20070054834A1, “Quaternary ammonium halides for treatment of infectious conditions” (NanoBio Corporation, priority 2005, published 2007).

System: S. aureus ATCC 6538
Experiment: Microbicidal effect of CPC on S. aureus cultures (log reduction in count)
Format: cell-based, Staphylococcus aureus
Conditions: incubated 10 minutes at 37° C
Procedure: The microbicidal effect of cetyl pyridinium chloride (CPC) was tested using a strain of Staphylococcus aureus. Specifically, S. aureus ATCC 6538 cultures were placed in three different test tubes. Different concentrations (0.1%, 0.01% or 0.001%) of CPC were added to each of the test tubes. The mixture of CPC and S. aureus was incubated for 10 minutes on a tube rotator at 37° C. The results are shown below in Table 1 as the log reduction in S. aureus count.

With CCCCCCCCCCCCCCCC[n+]1ccccc1 [CPC, cetyl pyridinium chloride] the “Log reduction in S. aureus count” value (CPC concentration 0.001%) was 3.4, the “Log reduction in S. aureus count” value (CPC concentration 0.01%) was 5.3 and the “Log reduction in S. aureus count” value (CPC concentration 0.1%) was 5.3.
